Assay results taken from US20230158025A1 (UNIVERSITY OF UTAH RESEARCH FOUNDATION, priority 2020, published 2023).
Where two headings read alike, the source gives them in different places.

Legend:
recombinant human GALK1 = recombinant human GALK1 (Homo sapiens, UniProt P51570); test: hGALK1 biochemical activity assay (Kinase-Glo Plus, ATP depletion)
How it was run: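 Recombinant human or mouse GALK1 (5 nM, with 100 μM galactose, in the added enzyme solution) was run with ATP (35 μM in the substrate solution) in HEPES pH 8.0 buffer. Compounds were tested at 11 1/3-step concentrations from 57.4 μM to 0.97 nM. After 1 h at room temperature, remaining ATP was read by Kinase-Glo Plus luminescence.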

[1] = rat microsomal stability (RLM); conditions: microsomal stability half-life
recombinant mouse GALK1 = recombinant mouse GALK1 (Mus musculus, UniProt Q9R0N0); test: mGALK1 biochemical activity assay (Kinase-Glo Plus, ATP depletion)
Sequence of recombinant mouse GALK1 (Q9R0N0 whole entry): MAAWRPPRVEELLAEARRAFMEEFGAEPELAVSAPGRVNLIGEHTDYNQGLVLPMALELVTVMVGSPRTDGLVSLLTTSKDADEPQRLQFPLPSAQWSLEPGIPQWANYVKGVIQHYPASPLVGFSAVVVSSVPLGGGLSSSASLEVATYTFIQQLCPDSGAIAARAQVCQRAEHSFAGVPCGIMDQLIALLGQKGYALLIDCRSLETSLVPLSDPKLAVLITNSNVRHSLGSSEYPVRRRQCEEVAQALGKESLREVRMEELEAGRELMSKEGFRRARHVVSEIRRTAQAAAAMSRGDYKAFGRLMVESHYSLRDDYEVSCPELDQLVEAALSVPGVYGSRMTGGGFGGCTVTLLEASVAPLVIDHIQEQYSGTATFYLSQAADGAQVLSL
How it was run: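 Recombinant GALK1 (5 nM) with 100 μM galactose; GALK1 turnover read as ATP depletion by Kinase-Glo Plus luminescence. Reaction ran 1 h at room temperature before detection reagent was added.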

PAMPA permeability = conditions: PAMPA
[2] = aqueous kinetic solubility; conditions: aqueous kinetic solubility
[3] = Tables 2-15, 35 μM ATP, 100 μM galactose, 1 h, bracketed figure after some values (e.g. −1.2) is undefined and not reported, read-out: hGALK IC50
[4] = recombinant human GALK1, Kinase-Glo Plus ATP depletion, read-out: hGALK
[5] = recombinant mouse GALK1, Kinase-Glo Plus ATP depletion, read-out: mGALK
[6] = Tables 2-15, 35 μM ATP, 100 μM galactose, 1 h, bracketed figure after some values is undefined and not reported, read-out: mGALK IC50
[7] = recombinant human GALK1, Kinase-Glo Plus ATP depletion, bracketed figure in the cell, e.g. (−1.2), is not defined in the text shown, read-out: hGALK
[8] = recombinant mouse GALK1, Kinase-Glo Plus ATP depletion, bracketed figure in the cell, e.g. (−1.2), is not defined in the text shown, read-out: mGALK

Sequence of recombinant human GALK1 (P51570 whole entry): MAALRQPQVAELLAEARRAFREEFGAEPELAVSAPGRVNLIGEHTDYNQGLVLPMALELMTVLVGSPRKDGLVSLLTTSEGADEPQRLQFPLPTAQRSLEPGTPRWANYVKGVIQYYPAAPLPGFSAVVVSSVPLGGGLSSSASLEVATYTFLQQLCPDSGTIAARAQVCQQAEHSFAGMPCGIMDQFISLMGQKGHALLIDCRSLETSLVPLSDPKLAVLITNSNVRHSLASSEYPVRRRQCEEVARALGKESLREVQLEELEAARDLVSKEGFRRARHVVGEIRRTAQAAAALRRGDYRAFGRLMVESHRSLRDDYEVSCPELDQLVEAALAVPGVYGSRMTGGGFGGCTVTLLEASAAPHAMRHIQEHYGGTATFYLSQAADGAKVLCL

Row | SMILES | IC50 (recombinant human GALK1; [3]) [µM] | IC50 (recombinant human GALK1; [4]) [µM] | Metab. Stabil. (m) [1] [m] | IC50 (recombinant mouse GALK1; [5]) [µM] | Perm. (1 × 10^−6 cm/sec) (PAMPA permeability) | Sol. [2] [µg/mL] | IC50 (recombinant mouse GALK1; [6]) [µM] | IC50 (recombinant human GALK1; [7]) [µM] | Metab. Stabil. (m) ([1]; minutes) | IC50 (recombinant mouse GALK1; [8]) [µM]
1 | CC1=C(C(=O)NCc2cccnc2)C(c2ccccc2Cl)N=C(Nc2nc3ccccc3o2)N1 (stereo not shown) [Compound 221, 2-(benzo[d]oxazol-2-ylamino)-4-(2-chlorophenyl)-6-methyl-N-(pyridin-3-ylmethyl)-1,4-dihydropyrimidine-5-carboxamide] | 6.85 | 6.85 | 1.582 | 19.3 | 1248.8 1 × 10^−6 cm/sec | <1 |  |  |  | 
2 | COC(=O)c1ccccc1CNC(=O)C1=C(C)NC(Nc2nc3ccccc3o2)=NC1c1ccccc1Cl (stereo not shown) [Compound 222, methyl 2-((2-(benzo[d]oxazol-2-ylamino)-4-(2-chlorophenyl)-6-methyl-1,4-dihydropyrimidine-5-carboxamido)methyl)benzoate] | 6.85 | 6.85 | 1.742 | 4.32 | 462.5 1 × 10^−6 cm/sec | <1 | 4.32 |  |  | 
3 | COC(=O)c1ccc(CNC(=O)C2=C(C)NC(Nc3nc4ccccc4o3)=NC2c2ccccc2Cl)cc1 (stereo not shown) [Compound 223, methyl 4-((2-(benzo[d]oxazol-2-ylamino)-4-(2-chlorophenyl)-6-methyl-1,4-dihydropyrimidine-5-carboxamido)methyl)benzoate] | 4.32 | 4.32 | 8.495 | 8.63 | 543.4 1 × 10^−6 cm/sec | <1 | 8.63 |  |  | 
4 | COC(=O)c1cccc(CNC(=O)C2=C(C)NC(Nc3nc4ccccc4o3)=NC2c2ccccc2Cl)c1 (stereo not shown) [Compound 224, methyl 3-((2-(benzo[d]oxazol-2-ylamino)-4-(2-chlorophenyl)-6-methyl-1,4-dihydropyrimidine-5-carboxamido)methyl)benzoate] | 4.85 | 4.85 | 3.416 | 7.69 | 615.7 1 × 10^−6 cm/sec | <1 | 7.69 |  |  | 
5 | CC1=C(C(=O)NCc2ccc(C(=O)O)cc2)C(c2ccccc2Cl)N=C(Nc2nc3ccccc3o2)N1 (stereo not shown) [Compound 225, 4-((2-(benzo[d]oxazol-2-ylamino)-4-(2-chlorophenyl)-6-methyl-1,4-dihydropyrimidine-5-carboxamido)methyl)benzoic acid] | 3.43 |  | >30 | 10.9 | <1 1 × 10^−6 cm/sec | 47.0 | 10.9 |  |  | 
6 | CC1=C(C(=O)NCc2cccc(C(=O)O)c2)C(c2ccccc2Cl)N=C(Nc2nc3ccccc3o2)N1 (stereo not shown) [Compound 226, 3-((2-(benzo[d]oxazol-2-ylamino)-4-(2-chlorophenyl)-6-methyl-1,4-dihydropyrimidine-5-carboxamido)methyl)benzoic acid] |  | 7.69 | >30 | 19.3 | <1.3 1 × 10^−6 cm/sec | 60.6 |  |  |  | 
7 | CC1=C(C(=O)NCc2cccc(CO)c2)C(c2ccccc2Cl)N=C(Nc2nc3ccccc3o2)N1 (stereo not shown) [Compound 227, 2-(benzo[d]oxazol-2-ylamino)-4-(2-chlorophenyl)-N-(3-(hydroxymethyl)benzyl)-6-methyl-1,4-dihydropyrimidine-5-carboxamide] |  | 4.85 | 6.574 | 12.2 | 868.8 1 × 10^−6 cm/sec | <1 | 12.2 |  |  | 
8 | CC1=C(C(=O)NCc2ccc(CO)cc2)C(c2ccccc2Cl)N=C(Nc2nc3ccccc3o2)N1 (stereo not shown) [Compound 228, 2-(benzo[d]oxazol-2-ylamino)-4-(2-chlorophenyl)-N-(4-(hydroxymethyl)benzyl)-6-methyl-1,4-dihydropyrimidine-5-carboxamide] | 6.85 |  | 13.8241 | 15.3 | 867.3 1 × 10^−6 cm/sec | <1 | 15.3 |  |  | 
9 | CC1=C(C(=O)NCc2ccccc2CO)C(c2ccccc2Cl)N=C(Nc2nc3ccccc3o2)N1 (stereo not shown) [Compound 229, 2-(benzo[d]oxazol-2-ylamino)-4-(2-chlorophenyl)-N-(2-(hydroxymethyl)benzyl)-6-methyl-1,4-dihydropyrimidine-5-carboxamide] | 6.11 |  | 5.0859 | 15.3 | 1362.3 1 × 10^−6 cm/sec | <1 | 15.3 |  |  | 
10 | CC1=C(C(=O)NCc2cn(C)cn2)[C@H](c2ccccc2Cl)N=C(Nc2nc3ccccc3o2)N1 [Compound 235, (R)-2-(benzo[d]oxazol-2-ylamino)-4-(2-chlorophenyl)-6-methyl-N-((1-methyl-1H-imidazol-4-yl)methyl)-1,4-dihydropyrimidine-5-carboxamide] | 3.06 | 3.06 | 5.621 | 4.32 | 866.5 1 × 10^−6 cm/sec | 46.1 | 4.32 |  |  | 
11 | CC1=C(C(=O)NCCN(C)C)C(c2ccccc2Cl)N=C(Nc2nc3ccccc3o2)N1 (stereo not shown) [Compound 237] | 19.3 | 19.3 | >30 | 15.3 | >1227 1 × 10^−6 cm/sec | >67 | 15.3 |  |  | 
12 | CC1=C(C(=O)NCc2cnn(C)c2)C(c2ccccc2Cl)N=C(Nc2nc3ccccc3o2)N1 (stereo not shown) [Compound 238, 2-(benzo[d]oxazol-2-ylamino)-4-(2-chlorophenyl)-6-methyl-N-((1-methyl-1H-pyrazol-4-yl)methyl)-1,4-dihydropyrimidine-5-carboxamide] | 1.37 |  | 15.67 | 12.2 | 807.7 1 × 10^−6 cm/sec | 24.2 | 12.2 |  |  | 
13 | CC1=C(S(C)(=O)=O)C(c2ccccc2Cl)N=C(Nc2nc3ccccc3o2)N1 (stereo not shown) [Compound 243, N-(4-(2-chlorophenyl)-6-methyl-5-(methylsulfonyl)-1,4-dihydropyrimidin-2-yl)benzo[d]oxazol-2-amine] |  | 13.7 | 9.37 | 19.3 | 42.78 1 × 10^−6 cm/sec | <1 |  |  |  | 
14 | O/N=C1\CCCC2=C1C(c1ccccc1Cl)N=C(Nc1nc3ccccc3o1)N2 (stereo not shown) [Compound 244, (E)-2-(benzo[d]oxazol-2-ylamino)-4-(2-chlorophenyl)-4,6,7,8-tetrahydroquinazolin-5(1H)-one oxime] |  |  |  |  | 244.29 1 × 10^−6 cm/sec | <1 |  | 17.2 | 5.48 | 10.9
15 | O=C(Nc1nncs1)C1=C(C(F)(F)F)NC(Nc2nc3ccccc3o2)=NC1c1ccccc1Cl (stereo not shown) [Compound 246, 2-(benzo[d]oxazol-2-ylamino)-4-(2-chlorophenyl)-N-(1,3,4-thiadiazol-2-yl)-6-(trifluoromethyl)-1,4-dihydropyrimidine-5-carboxamide] |  |  |  |  | 715.1 1 × 10^−6 cm/sec | 21.9 |  | 13.7 | >30 | 17.2
